Data reported in patent US4521537A, “Spiro[2H-1,4-benzodioxepin-3(5H)4'-piperidine and -3'-pyrrolidine] compounds and their use as antihypertensive agents” (Hoechst-Roussel Pharmaceuticals Incorporated, priority 1984, dated 1985).
Structures can show the parent of a compound that is named as a salt. Where two headings read alike, the source gives them in different places.

Assays:
[1] = test system: spontaneous hypertensive rat; assay: antihypertensive activity, spontaneous hypertensive rat (SHR) test, indirect tail cuff method; type: in vivo; settings: 50 mg/kg PO
Description: Compounds of this invention are useful as antihypertensive agents due to their ability to depress blood pressure in mammals. Antihypertensive activity is measured in the spontaneous hypertensive rat by the indirect tail cuff method described by A. Schwartz, Ed., Methods in Pharmacology, Vol. page 135, Appleton Century Crafts, New York (1971). […] The drop in blood pressure is measured on the third day following administration. The antihypertensive activity is expressed as mm Hg decrease in mean arterial blood pressure.

[2] = test system: mice; assay: phenylquinone-induced writhing test in mice (PQW), analgesia; type: in vivo, male, CD-1 mice; settings: Mus musculus; for change in vivo at 5 mg/kg: 5 mg/kg SC; for change in vivo at 5 mg/kg / change in vivo at 20 mg/kg / change in vivo at 10 mg/kg: read-out: PQW % (percent inhibition of writhing); for ED50: read-out: ED50 (PQW)
Description: Compounds of this invention produce analgesia when administered to mammals. A phenylquinone-induced writhing test in mice (PQW) was used as an assay to detect analgesia. The procedure employed was a modification of Siegmund, E., Cadmus, R. and Lu, G: Proc. Soc. Exptl. Bio. Med., 95: 729 (1957). 12.5 mg of phenyl-p-benzoquinone were dissolved in 5 ml of 95% ethanol and q.s. to 100 ml with distilled water and administered to mice (10 ml/kg, i.p.). This produces a characteristic "writhe" which is defined as an inward rotation of one or more feet with twisting and turning of the trunk, drawing in of the abdominal wall, lordosis and arching of the back.
A total of 28 male, CD-1 mice (18 to 30 grams) were employed for a time response. Animals recived food and water ad libitum. Drugs to be tested were prepared with distilled water and, if insoluble, one drop of a suitable surfactant was added.
Twenty animals (5/group) were administered the drug 15, 30, 45 and 60 minutes prior to phenylquinone injections. Control animals (2/group) received an equal amount of vehicle. After the administration of phenylquinone the mice were placed separately into one-liter beakers and 5 minutes were allowed to lapse. The mice were then observed for a period of 10 minutes and the number of writhes were recorded for each animal. The formula for computing percent inhibition is: [formula]
The time period with the greatest percent of inhibition is considered the peak time.
A dose range is run in the same fashion as a time response except 10 animals per group were tested at the peak time of drug activity. Fifty animals, 4 drug groups, and a vehicle control were employed. Animals were dosed and tested in a randomized manner. An estimated ED50 was calculated by a computer linear regression analysis.

SMILES	SHR mm Hg (decrease in mean arterial blood pressure) ([1]; Table II) [mm Hg]	SHR mm Hg (decrease in mean arterial blood pressure) ([1]; Table III) [mm Hg]	change in vivo at 20 mg/kg ([2]; Table III, 20 mg/kg SC) [%]	change in vivo at 20 mg/kg ([2]; Table II, 20 mg/kg SC) [%]	also measured
CC1Oc2ccccc2COC12CCN(CCc1ccccc1)CC2 (stereo not drawn) [Example 46, 2-Methyl-1'-(2-phenylethyl)-spiro[2H-1,4-benzodioxepin-3(5H)4'-piperidine]hydrochloride]	-12	–	–	–	change in vivo at 5 mg/kg ([2]; Table II): -87%
CC1Oc2ccc(Cl)cc2COC12CCN(CC(O)COc1ccccc1)CC2 (stereo not drawn) [Example 91, 7-Chloro-2-methyl-1'-(2-hydroxy-3-phenoxypropyl)spiro[2H-1,4-benzodioxepin-3(5H)4'-piperidine]hydrochloride]	–	-29	-67	–	–
CC1Oc2ccccc2COC12CCN(CCO)CC2 (stereo not drawn) [Example 48, 1'-(2-Hydroxyethyl)-2-methylspiro[2H-1,4-benzodioxepin-3(5H)4'-piperidine]]	-23	–	–	-39	–
CC1Oc2ccccc2COC12CCN(CCc1ccc([N+](=O)[O-])cc1)CC2 (stereo not drawn) [Example 56, 1'-[2-(4-Nitrophenyl)ethyl]2-methylspiro[2H-1,4-benzodioxepin-3(5H)4'piperidine]oxalate]	-17	–	–	-30	–
CC1Oc2ccccc2COC12CCN(CCN1CCOCC1)CC2 (stereo not drawn) [Example 59, 1'-[2-(1-Morpholino)ethyl]-2-methylspiro[2H-1,4-benzodioxepin-3(5H)4'-piperidine]dihydrochloride]	-18	–	–	-52	–
CC1Oc2ccc(Cl)cc2COC12CCN(CCOC(c1ccc(F)cc1)c1ccc(F)cc1)CC2 (stereo not drawn) [Example 85, 7-Chloro-1'-[2-(bis(4-fluorophenyl)methoxy)ethyl]-2-methylspiro[2H-1,4-benzodioxepin-3(5H)4'-piperidine]hydrochloride]	–	-46	–	–	change in vivo at 20 mg/kg ([2]; sc): -44%
CC1Oc2ccc(F)cc2COC12CCN(CCCCc1ccc(F)cc1)CC2 (stereo not drawn) [Example 77, 1'-[4-(4-Fluorophenyl)butyl]-7-fluoro-2-methylspiro[2H-1,4-benzodioxepin-3(5H)4'-piperidine]hydrochloride]	–	-40	–	–	change in vivo at 5 mg/kg ([2]; Table III): -66%; ED50 ([2]; Table III, SC, printed in PQW % column): 4.3 mg/kg
CCOC(=N)N1CCC2(CC1)OCc1ccccc1OC2C (stereo not drawn) [Example 72, 2-Methylspiro[2H-1,4-benzodioxepin-3(5H)4'-piperidine]-1'-carboximidic acid, ethyl ester hydrochloride]	–	-20	-51	–	–
COc1ccc(OCC(O)CN2CCC3(CC2)OCc2cc(Cl)ccc2OC3C)cc1 (stereo not drawn) [Example 92, 7-Chloro-2-methyl-1'-[2-hydroxy-3-(4-methoxyphenoxy)propyl]spiro[2H-1,4-benzodioxepin-3(5H)4'-piperidine]hydrochloride]	–	-66	-47	–	–
CC1Oc2ccccc2COC12CCN(CCN)CC2 (stereo not drawn) [Example 49, 1'-(2-Aminoethyl)-2-methylspiro[2H-1,4-benzodioxepin-3(5H)4'-piperidine]dioxalate]	-23	–	–	-85	ED50 ([2]; Table II, SC, computer linear regression, peak time): 4.7 mg/kg
CC1Oc2ccccc2COC12CCN(CC(O)COc1ccccc1)CC2 (stereo not drawn) [Example 88, 2-Methyl-1'-(2-hydroxy-3-phenoxypropyl)spiro[2H-1,4-benzodioxepin-3(5H)4'-piperidine]hydrochloride]	–	-34	-99	–	–
CC1Oc2ccccc2COC12CCN(CCC#N)CC2 (stereo not drawn) [Example 67, 1'-(2-Cyanoethyl)-2-methylspiro[2H-1,4-benzodioxepin-3(5H)4'-piperidine]oxalate]	-30	–	–	-40	–
CC(=O)N1CCC2(CC1)OCc1cc([N+](=O)[O-])ccc1OC2C (stereo not drawn) [Example 80, 1'-Acetyl-2-methyl-7-nitrospiro[2H-1,4-benzodioxepin-3(5H)4'-piperidine]]	–	-19	-22	–	–
CC1Oc2ccccc2COC12CCN(CCCN)CC2 (stereo not drawn) [Example 55, 2-Methyl-1'-(3-aminopropyl)spiro[2H-1,4-benzodioxepin-3(5H)4'-piperidine]dioxalate]	-28	–	–	-28	–
CC1Oc2ccccc2COC12CCN(CCCc1noc3cc(F)ccc13)CC2 (stereo not drawn) [Example 52, 1'-[3-(6-Fluoro-1,2-benzisoxazol-3-yl)propyl]-2-methylspiro[2H-1,4-benzodioxepin-3(5H)4'-piperidine]maleate]	-67	–	–	–	change in vivo at 5 mg/kg ([2]; Table II): -82%
COc1ccc(OCC(O)CN2CCC3(CC2)OCc2ccccc2OC3C)cc1 (stereo not drawn) [Example 89, 2-Methyl-1'-[2-hydroxy-3-(4-methoxyphenoxy)propyl]-spiro[2H-1,4-benzodioxepin-3(5H)4'-piperidine]hydrochloride]	–	-40	-57	–	–
CC1Oc2ccc([N+](=O)[O-])cc2COC12CCNCC2 (stereo not drawn) [Example 81, 2-Methyl-7-nitrospiro[2H-1,4-benzodioxepin-3(5H)4'-piperidine]hydrochloride]	–	–	-80	–	–
CCC(=O)O[C@](Cc1ccccc1)(c1ccccc1)[C@H](C)CN(C)C [Propoxyphene, reference compound]	–	–	–	–	ED50 ([2]; sc): 3.9 mg/kg
CC1Oc2ccccc2COC12CCN(CC#N)CC2 (stereo not drawn) [Example 45, 1'-(Cyanomethyl)-2-methylspiro[2H-1,4-benzodioxepin-3(5H)-4'-piperidine]]	-29	–	–	-15	–
CC1Oc2ccccc2COC12CCN(CCC(C#N)(c1ccccc1)c1ccccc1)CC2 (stereo not drawn) [Example 61, 2-Methyl-1'-[3-cyano-3,3-diphenylpropyl]spiro[2H-1,4-benzodioxepin-3(5H)4'-piperidine]hydrochloride]	–	–	–	–	change in vivo at 20 mg/kg ([2]; sc): -25%
CNC(=O)N1CCC2(CC1)OCc1ccccc1OC2C (stereo not drawn) [Example 70, N,2-Dimethylspiro[2H-1,4-benzodioxepin-3(5H)4'-piperidine]-1'-carboxamide]	–	-39	-35	–	–
CC1Oc2ccccc2COC12CCN(CCCCC(c1ccc(F)cc1)c1ccc(F)cc1)CC2 (stereo not drawn) [Example 84, 2-Methyl-1'-[5,5-bis(4-fluorophenyl)pentyl]spiro[2H-1,4-benzodioxepin-3(5H)4'-piperidine]hydrochloride]	–	–	-34	–	–
CC1Oc2ccccc2COC12CCN(CC1CC1)CC2 (stereo not drawn) [Example 51, 1'-Cyclopropylmethyl-2-methylspiro[2H-1,4-benzodioxepin-3(5H)4'-piperidine]oxalate]	–	–	–	–	change in vivo at 10 mg/kg ([2]; Table II, 10 mg/kg SC): -61%
CC1Oc2ccccc2COC12CCN(CCNC(=N)N)CC2 (stereo not drawn) [Example 50, [2-(2-Methylspiro[2H-1,4-benzodioxepin-3(5H)4'-piperidin]-1'-yl)ethyl]-guanidine hemisulfate hemihydrate]	–	–	–	-8	–
CC1Oc2cc(Cl)ccc2COC12CCNCC2 (stereo not drawn) [Example 65, 8-Chloro-2-methylspiro[2H-1,4-benzodioxepin-3(5H)4'-piperidine]oxalate]	–	–	–	–	change in vivo at 10 mg/kg ([2]; sc): -98%
